Consider 24 compounds from US7491710B2 (priority 2003, dated 2009).

As a reminder, the IC50 is the concentration needed to halve the response being measured.

Targets include human KDR enzyme (Homo sapiens, UniProt P35968); human FAK (Homo sapiens, UniProt Q05397); human Tie2 (Homo sapiens, UniProt Q02763); CDK2/cyclin E (Homo sapiens, UniProt P24941); Aurora2 kinase (Homo sapiens, UniProt O14965).
Holding throughout (assay): biochemical

Read-outs that look alike come from different tables or passages of the source. Bounds are passed on as bounds.

Aurora2 kinase, sequence (O14965 whole entry): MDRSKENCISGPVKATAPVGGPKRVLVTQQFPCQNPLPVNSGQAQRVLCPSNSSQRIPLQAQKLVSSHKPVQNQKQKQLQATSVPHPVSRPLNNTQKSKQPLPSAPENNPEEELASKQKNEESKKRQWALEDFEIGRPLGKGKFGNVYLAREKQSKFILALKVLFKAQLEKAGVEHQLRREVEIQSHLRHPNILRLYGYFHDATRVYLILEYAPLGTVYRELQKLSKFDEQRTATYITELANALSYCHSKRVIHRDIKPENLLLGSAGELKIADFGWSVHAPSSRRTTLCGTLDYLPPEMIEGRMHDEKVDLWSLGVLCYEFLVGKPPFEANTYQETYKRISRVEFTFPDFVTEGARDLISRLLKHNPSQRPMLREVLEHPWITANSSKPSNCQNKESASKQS
human KDR enzyme, sequence (P35968 786-1356): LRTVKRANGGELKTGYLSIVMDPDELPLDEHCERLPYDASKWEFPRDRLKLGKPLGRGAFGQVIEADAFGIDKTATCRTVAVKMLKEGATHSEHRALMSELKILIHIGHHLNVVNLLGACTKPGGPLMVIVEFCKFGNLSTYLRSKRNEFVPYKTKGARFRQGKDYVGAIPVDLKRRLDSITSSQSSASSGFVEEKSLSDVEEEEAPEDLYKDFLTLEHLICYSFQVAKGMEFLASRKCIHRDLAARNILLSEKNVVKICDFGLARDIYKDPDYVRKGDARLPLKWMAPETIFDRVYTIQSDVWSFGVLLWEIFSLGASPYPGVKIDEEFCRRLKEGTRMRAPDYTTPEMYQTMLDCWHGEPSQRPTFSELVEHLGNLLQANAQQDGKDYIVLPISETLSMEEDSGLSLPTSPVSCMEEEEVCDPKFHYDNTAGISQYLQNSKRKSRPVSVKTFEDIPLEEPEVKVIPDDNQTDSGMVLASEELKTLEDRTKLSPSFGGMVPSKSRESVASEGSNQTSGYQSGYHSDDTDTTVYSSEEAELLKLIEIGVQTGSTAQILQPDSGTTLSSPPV
human Tie2, sequence (Q02763 776-1124): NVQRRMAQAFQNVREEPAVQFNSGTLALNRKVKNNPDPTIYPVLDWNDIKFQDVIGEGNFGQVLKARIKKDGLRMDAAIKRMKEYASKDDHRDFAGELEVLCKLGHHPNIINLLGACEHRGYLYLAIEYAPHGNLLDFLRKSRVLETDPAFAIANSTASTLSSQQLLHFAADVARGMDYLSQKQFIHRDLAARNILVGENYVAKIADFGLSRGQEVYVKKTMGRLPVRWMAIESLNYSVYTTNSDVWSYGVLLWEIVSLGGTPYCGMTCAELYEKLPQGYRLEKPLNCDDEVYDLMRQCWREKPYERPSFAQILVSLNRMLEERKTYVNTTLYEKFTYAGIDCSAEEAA
human FAK, sequence (Q05397 whole entry): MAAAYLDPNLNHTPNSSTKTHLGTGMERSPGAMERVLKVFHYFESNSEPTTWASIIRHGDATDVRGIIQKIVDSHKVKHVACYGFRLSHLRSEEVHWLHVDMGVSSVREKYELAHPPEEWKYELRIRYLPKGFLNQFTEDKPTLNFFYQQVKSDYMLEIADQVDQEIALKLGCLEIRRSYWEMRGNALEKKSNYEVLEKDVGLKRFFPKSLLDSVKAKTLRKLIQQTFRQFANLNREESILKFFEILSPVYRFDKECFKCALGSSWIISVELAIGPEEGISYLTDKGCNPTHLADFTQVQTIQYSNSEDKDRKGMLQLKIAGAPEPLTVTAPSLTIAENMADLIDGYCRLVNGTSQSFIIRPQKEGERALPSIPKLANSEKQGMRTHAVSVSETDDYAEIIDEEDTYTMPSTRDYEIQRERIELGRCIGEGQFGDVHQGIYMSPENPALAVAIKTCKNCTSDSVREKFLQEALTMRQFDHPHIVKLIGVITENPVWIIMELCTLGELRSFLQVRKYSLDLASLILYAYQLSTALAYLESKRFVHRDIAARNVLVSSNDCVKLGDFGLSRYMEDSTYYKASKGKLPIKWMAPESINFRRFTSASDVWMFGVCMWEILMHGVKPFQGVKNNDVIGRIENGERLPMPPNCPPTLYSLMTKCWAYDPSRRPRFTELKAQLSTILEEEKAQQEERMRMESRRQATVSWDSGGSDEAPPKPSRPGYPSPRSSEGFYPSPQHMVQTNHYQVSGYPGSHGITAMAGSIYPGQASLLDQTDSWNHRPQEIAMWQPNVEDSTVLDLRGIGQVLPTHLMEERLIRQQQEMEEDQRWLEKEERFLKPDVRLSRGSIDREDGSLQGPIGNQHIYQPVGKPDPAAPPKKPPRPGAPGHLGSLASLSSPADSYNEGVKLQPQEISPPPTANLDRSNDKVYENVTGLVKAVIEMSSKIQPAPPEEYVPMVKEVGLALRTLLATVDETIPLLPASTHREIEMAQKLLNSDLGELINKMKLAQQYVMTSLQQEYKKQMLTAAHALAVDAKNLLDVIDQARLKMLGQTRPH

`O=P(O)(Oc1ccc2[nH]nc(-c3cc4ccccc4[nH]3)c2c1)c1ccccc1` [Example 33, Phenylphosphonic acid mono-[3-(1H-indol-2-yl)-1H-indazol-5-yl]ester]: the IC50 on human KDR enzyme worked out at 577 nM; on human FAK it was 316 nM; against human Tie2 it was 17 nM; at CDK2/cyclin E, 291 nM; against Aurora2 kinase, 10 nM.

With `CC(C)OP(=O)(Oc1ccc2[nH]nc(-c3cc4ccccc4[nH]3)c2c1)c1ccccc1` (stereo not drawn) [Example 07, Phenylphosphonic acid 3-(1H-indol-2-yl)-1H-indazol-5-yl ester isopropyl ester], the IC50 against human KDR enzyme stood at 2050 nM; against human FAK, 9640 nM; against human Tie2 it was 162 nM; against CDK2/cyclin E, 959 nM; at Aurora2 kinase, 24 nM.

On to `COc1ccc2[nH]c(-c3n[nH]c4ccc(OP(=O)(OC)c5ccccc5)cc34)cc2n1` (stereo not drawn) [Example 24, phenylphosphonic acid 3-(5-methoxy-1H-pyrrolo[3,2-b]pyridin-2-yl)-1H-indazol-5-yl ester methyl ester], for which the IC50 on human KDR enzyme worked out at 364 nM; at human Tie2, 22 nM; against CDK2/cyclin E, 142 nM; against Aurora2 kinase, 24 nM.

For `CCOP(=O)(Oc1ccc2[nH]nc(-c3cc4nc(OC)ccc4[nH]3)c2c1)c1ccccc1` (stereo not drawn) [Example 23, Phenylphosphonic acid ethyl ester 3-(5-methoxy-1H-pyrrolo[3,2-b]pyridin-2-yl)-1H-indazol-5-yl ester], the IC50 worked out at 442 nM against human KDR enzyme, 30 nM against human Tie2, 249 nM against CDK2/cyclin E and 24 nM against Aurora2 kinase.

On to `CP(=O)(Oc1ccc2[nH]nc(-c3cc4cc(OCCN5CCOCC5)ccc4[nH]3)c2c1)c1ccccc1` (stereo not drawn) [Example 05, Methylphenylphosphinic acid 3-[5-(2-morpholin-4-ylethoxy)-1H-indol-2-yl]-1H-indazol-5-yl ester], for which the IC50 at human KDR enzyme was found to be 141 nM; at human FAK, 48 nM; against human Tie2 it was 11 nM; on CDK2/cyclin E it was 394 nM; on Aurora2 kinase it was 15 nM.

On to `COP(=O)(Oc1ccc2[nH]nc(-c3cc4ccccc4[nH]3)c2c1)C1CCCCC1` (stereo not drawn) [Example 32, Cyclohexylphosphonic acid 3-(1H-indol-2-yl)-1H-indazol-5-yl ester methyl ester], for which the IC50 at human KDR enzyme stood at 999 nM; on human Tie2, 119 nM; on CDK2/cyclin E, 1500 nM; at Aurora2 kinase it was 26 nM.

For `COP(=O)(Oc1ccc2[nH]ncc2c1)c1ccccc1` (stereo not drawn) [Example 10, Phenylphosphonic acid 1H-indazol-5-yl ester methyl ester], the IC50 was above 10000 nM on human FAK, above 10000 nM against human Tie2, above 10000 nM at CDK2/cyclin E and 9130 nM against Aurora2 kinase.

For the compound `O=P(OCc1ccccc1)(Oc1ccc2[nH]nc(-c3cc4ccccc4[nH]3)c2c1)c1ccccc1` (stereo not drawn) [Example 08, Phenylphosphonic acid 3-(1H-indol-2-yl)-1H-indazol-5-yl ester benzyl ester], the IC50 on human KDR enzyme was 5400 nM; on human FAK, 8300 nM; against human Tie2, 130 nM; at CDK2/cyclin E, 3700 nM; on Aurora2 kinase it was 53 nM.

`COP(=O)(O)c1ccc2[nH]nc(-c3cccs3)c2c1` [Example 16, (3-Thiophen-2-yl-1H-indazol-5-yl)phosphonic acid monomethyl ester]: the IC50 against human KDR enzyme was above 10000 nM; on human FAK, above 10000 nM; on human Tie2, 2210 nM; against CDK2/cyclin E, above 10000 nM; against Aurora2 kinase it was 2200 nM.

`O=P(Oc1ccc2[nH]nc(/C=C/c3ccccc3)c2c1)(c1ccccc1)c1ccccc1` [Example 02, Diphenylphosphinic acid 3-((E)-styryl)-1H-indazol-5-yl ester]: the IC50 against human KDR enzyme turned out to be 508 nM; against human FAK, 3530 nM; at human Tie2 it was 518 nM; at CDK2/cyclin E, 991 nM; on Aurora2 kinase, 75 nM.

For the compound `CP(=O)(Oc1ccc2[nH]nc(-c3cc4ccccc4[nH]3)c2c1)c1ccccc1` (stereo not drawn) [Example 03, Methylphenylphosphinic acid 3-(1H-indol-2-yl)-1H-indazol-5-yl ester], the half-inhibitory concentration (IC50) against human KDR enzyme was 310 nM; against human FAK it was 816 nM; against human Tie2 it was 3 nM; on CDK2/cyclin E, 142 nM; against Aurora2 kinase it was 20 nM.

Take `COP(=O)(Oc1ccc2[nH]nc(-c3cc4ccccc4s3)c2c1)c1ccccc1` (stereo not drawn) [Example 26, Phenylphosphonic acid 3-benzo[b]thiophen-2-yl-1H-indazol-5-yl ester methyl ester]: the IC50 on CDK2/cyclin E (read-out: CDK2 IC50) is 3240 nM; on Aurora2 kinase (read-out: Au2 IC50) it was 730 nM.

`COP(=O)(Oc1ccc2[nH]nc(-c3cc4ccccc4[nH]3)c2c1)c1ccccc1` (stereo not drawn) [Example 06, Phenylphosphonic acid 3-(1H-indol-2-yl)-1-H-indazol-5-yl ester methyl ester]: the IC50 against human KDR enzyme is 288 nM; against human FAK it was 740 nM; on human Tie2, 48 nM; against CDK2/cyclin E it was 184 nM; at Aurora2 kinase, 15 nM.

With `COP(=O)(O)c1ccc2[nH]nc(-c3ccc[nH]3)c2c1` [Example 17, [3-(1H-Pyrrol-2-yl)-1H-indazol-5-yl]phosphonic acid monomethyl ester], at Aurora2 kinase, the midpoint of inhibition, the IC50, lay at 770 nM.

For the compound `COP(=O)(Oc1ccc2[nH]nc(-c3cc4ccccc4s3)c2c1)c1ccccc1` (stereo not drawn) [Example 27, Phenylphosphonic acid 3-benzo[b]thiophen-2-yl-1H-indazol-5-yl ester methyl ester], the IC50 against human KDR enzyme was found to be 1880 nM; against human Tie2, 353 nM; on CDK2/cyclin E, 7560 nM; on Aurora2 kinase, 134 nM.

Consider `COP(=O)(Oc1ccc2[nH]nc(-c3ccc[nH]3)c2c1)c1ccccc1` (stereo not drawn) [Example 11, Phenylphosphonic acid methyl ester 3-(1H-pyrrol-2-yl)-1H-indazol-5-yl ester], for which the IC50 against human KDR enzyme is 1250 nM; on human Tie2 it was 229 nM; against CDK2/cyclin E, 199 nM; at Aurora2 kinase it was 90 nM.

On to `CCOP(=O)(OCC)c1ccc2[nH]nc(/C=C/c3ccccc3)c2c1` [Example 14, [3-((E)-styryl)-1H-indazol-5-yl]phosphonic acid diethyl ester], for which the IC50 against human KDR enzyme came to 1660 nM; against human FAK, 5880 nM; on human Tie2 it was 290 nM; on CDK2/cyclin E, 780 nM; at Aurora2 kinase, 76 nM.

For `COP(=O)(O)c1ccc2[nH]nc(/C=C/c3ccccc3)c2c1` [Example 13, [3-((E)-styryl)-1H-indazol-5-yl]phosphonic acid monomethyl ester], the midpoint of inhibition against Aurora2 kinase, the IC50, lay at 69 nM.

On to `CP(C)(=O)Oc1ccc2[nH]nc(-c3cc4ccccc4[nH]3)c2c1` [Example 18, Dimethylphosphinic acid 3-(1H-indol-2-yl)-1H-indazol-5-yl ester], for which the IC50 against human KDR enzyme was found to be 228 nM; against human FAK, 7570 nM; against human Tie2 it was 33 nM; against CDK2/cyclin E, 33 nM; on Aurora2 kinase it was 20 nM.

With `CP(=O)(Oc1ccc2[nH]nc(/C=C/c3ccccc3)c2c1)c1ccccc1` (stereo not drawn) [Example 01, Methylphenylphosphinic acid 3-((E)-styryl)-1H-indazol-5-yl ester], the IC50 is 158 nM on human KDR enzyme; 279 nM at human FAK; 40 nM at human Tie2; 234 nM on CDK2/cyclin E; 37 nM against Aurora2 kinase.

Turning to `COP(=O)(Oc1ccc2[nH]nc(/C=C/c3ccccc3)c2c1)c1ccccc1` (stereo not drawn) [Example 25, Phenylphosphonic acid methyl ester 3-styryl-1H-indazol-5-yl ester], the IC50 against CDK2/cyclin E was 578 nM; against Aurora2 kinase, 41 nM.

Consider `COP(=O)(O)c1ccc2[nH]nc(-c3cc4ccccc4[nH]3)c2c1` [Example 15, [3-(1H-Indol-2-yl)-1H-indazol-5-yl]phosphonic acid monomethyl ester], for which the IC50 on human KDR enzyme is above 10000 nM; on human FAK it was above 10000 nM; at human Tie2 it was 4080 nM; against CDK2/cyclin E, 2260 nM; on Aurora2 kinase it was 108 nM.

For the compound `COP(=O)(OC)c1ccc2[nH]nc(/C=C/c3ccccc3)c2c1` [Example 12, [3-((E)-styryl)-1H-indazol-5-yl]phosphonic acid dimethyl ester], the IC50 at human KDR enzyme was found to be 2030 nM; against human Tie2, 2310 nM; on CDK2/cyclin E, 290 nM; at Aurora2 kinase it was 140 nM.

With `O=P(Oc1ccc2[nH]nc(-c3cc4ccccc4[nH]3)c2c1)(c1ccccc1)c1ccccc1` [Example 04, Diphenylphosphinic acid 3-(1H-indol-2-yl)-1H-indazol-5-yl ester], the IC50 was 1630 nM at human KDR enzyme; 2900 nM against human FAK; 22 nM at human Tie2; 586 nM on CDK2/cyclin E; 99 nM against Aurora2 kinase.
